ChEMBL document CHEMBL5137082, “Discovery of a Novel Vascular Disrupting Agent Inhibiting Tubulin Polymerization and HDACs with Potent Antitumor Effects” (J Med Chem, 2022)
Calls of active or inactive are those of the source. No cut-off for these calls is given here.

Legend:
Histone deacetylase 8 = biological target: T1, Histone deacetylase 8 (Homo sapiens, UniProt Q9BY41); assay: Inhibition of HDAC8 in human HeLa cells using BOC-K(Ac)-AMC as substrate measured after 30 mins by fluorescence based microtiter plate reader assay; type: cell-based
T1 sequence (Q9BY41 whole entry): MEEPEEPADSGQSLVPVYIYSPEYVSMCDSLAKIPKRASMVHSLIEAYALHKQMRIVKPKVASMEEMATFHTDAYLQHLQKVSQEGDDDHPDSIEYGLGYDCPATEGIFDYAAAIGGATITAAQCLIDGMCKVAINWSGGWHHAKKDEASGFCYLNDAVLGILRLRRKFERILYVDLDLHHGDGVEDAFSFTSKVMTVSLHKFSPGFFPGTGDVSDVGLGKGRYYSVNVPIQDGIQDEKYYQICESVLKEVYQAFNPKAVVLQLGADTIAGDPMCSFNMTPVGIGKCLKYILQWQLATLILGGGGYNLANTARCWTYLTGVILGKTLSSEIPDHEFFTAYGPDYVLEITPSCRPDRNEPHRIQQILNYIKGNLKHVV

HepG2 [1] = assay: Induction of apoptosis in human HepG2 cells assessed as late apoptotic cells at 7.5 nM incubated for 48 hrs by Annexin-V/PI-staining based flow cytometry (reference value: 2.53 +/- 0.34%); type: functional
HepG2 [2] = assay: Induction of apoptosis in human HepG2 cells assessed as viable cells at 7.5 nM incubated for 48 hrs by Annexin-V/PI-staining based flow cytometry (reference value: 91.44 +/- 0.74%); type: functional; conditions: read-out: Activity
PC-3 = assay: Induction of apoptosis in human PC-3 cells assessed as mitochondrial membrane potential loss by measuring early apoptotic cells at 30 nM incubated for 48 hrs by JC1 staining based flow cytometry analysis (reference value: 6.50 +/- 0.17%); type: functional
Tubulin (Homo sapiens) = Tubulin (Homo sapiens) (UniProt P68371+Q9H4B7+P0DPH7+P68366+Q13509+Q71U36+P04350+Q3ZCM7+P07437+P68363+Q9BQE3+Q6PEY2+Q13885+Q9BVA1+Q9BUF5); assay: Inhibition of [3H]Colchicine binding to tubulin (unknown origin) at 5 uM measured after 2 hrs by scintillation counting method relative to control; type: protein-complex assay
[3] = Antiproliferative activity against HUVEC cells assessed as inhibition of cell growth measured after 24 hrs by MTT assay; type: toxicity, cell-based; conditions: human
[4] = Metabolic stability in mouse plasma assessed as half life at 40 uM measured upto 5 hrs by LC-MS/MS analysis; type: ADME, cell-free
[5] = Metabolic stability in mouse plasma assessed as compound remaining at 40 uM measured after 1 hrs by LC-MS/MS analysis (reference value: 100%); type: ADME, cell-free
[6] = Metabolic stability in mouse assessed as hepatic clearance; type: ADME; conditions: 1 h, 1 µM, time < 60 min
Mus musculus = assay: In vivo inhibition of HDAC in ICR mouse allografted with mouse H22 cells assessed as upregulation of acetyl-histone H3 expression at 20 mg/kg, iv qd administered for 21 days measured after 24 hrs by Western blot analysis; type: functional, organism-based; conditions: time 21.0 day

IC50 (Histone deacetylase 8): 2120 nM
inhibition (Tubulin (Homo sapiens)): 63.4%
half-life at 40 µM [4]: 2.1 h
Stability [5]: 45.6%
CLH [6]: 1.45 mL/min
SMILES: COc1ccc(CNC(=O)c2cc(F)ccc2N2CCOCC2)cc1/C=C/C(=O)NO
Activity (HepG2 [1]): 6.89%
viability at 0.0075 µM (HepG2 [2]): 71.6%
Activity (PC-3): 59.5%
IC50 at 24 h [3]: 271 nM
inhibition (Mus musculus): Active
